Like-named read-outs stand apart in the source and are kept apart here.
Experiments:
[1] = Ocular pharmacokinetic study in rabbit eyes, single topical ocular dose; assay type: in vivo; conditions: single 300 μg topical ocular dose; for concentration at 0.5 hr: 0.5 hr post-dosing; for concentration at 1 hr: 1.0 hr post-dosing; for concentration at 3 hr: 3 hr post-dosing; for concentration at 6 hr: 6 hr post-dosing
Protocol: In order to better understand the time-course of action of FR-190997, a pharmacokinetic study was performed in rabbit eyes using a single 300 μg topical ocular dose of FR-190997. […] Due to the activation of multiple signaling pathways by BK (see above), and presumably FR-190997, and the convergence and amplification of the down-stream biochemical reactions in the target cells/tissues, it is quite possible that activation of only a few BK receptors by FR-190997 may result in quite profound IOP-lowering.

guinea pigs = test: IOP-lowering activity in guinea pigs; assay type: in vivo
Source text: Some obvious drawbacks and reasons for the lack of consistent observations noted above are probably related to species differences in the effects of BK on IOP changes and on the fact that BK is a labile peptide that can easily and rapidly be inactivated by kininases and other proteases when it comes into contact with body fluids (Hall, Pharmacol. Ther., 56, 131-190, 1992). Additionally, topical ocular administration of peptides such as BK are confounded by the potential lack of or little bioavailability through the cornea to reach the anterior segment of the eye. […] This is probably related to the attainment of a relevant concentration in the aqueous humor and ciliary body when the compound was administered topical ocularly.

ocular normotensive mice = test: Acute IOP response in mouse eyes; assay type: in vivo; conditions: 0.1% topical, IOP at 6 and 24 hours; FIG. 7
Protocol: IOP is determined with an applanation pneumatonometer after light corneal anesthesia with 0.1% proparacaine. After baseline IOP measurements were taken, one eye of each of 8 mice was topically dosed with 0.1% FR-190997 in the formulation described in Example 10 or the vehicle of Example 10. The contralateral eye was dosed with vehicle as a control. Subsequent IOP measurements were taken at 6 and 24 hours.

[2] = tested on: Human trabecular meshwork (TM) cells; test: PGE2 production (RIA) in human trabecular meshwork cells; assay type: cell-based; conditions: 1 h at 37° C., BK 100 nM or 1 μM, fluprostenol 1 μM, non-peptide agonists 1 μM or 10 μM, FIG. 6
Protocol: The ability of BK agonists to stimulate prostaglandin E2 (PGE2) production was examined as follows. Human trabecular meshwork (TM) cells were seeded in culture plates and allowed to reach confluence. […] Fluprostenol was used as a positive control. After this time the assay was terminated by placing the assay plates on ice and by the addition of 100 μL of a cell-lysis reagent supplied with the PGE2 radioimmunoassay (RIA) kit (Amersham Pharmacia Biotech, Arlington Heights, Ill.). All reagents and standards supplied in the RIA kit were prepared and the RIA performed according to the manufacturer's instructions. Assay buffer, diluted prostaglandin E2 (PGE2) standard and supernatant from the cell-based experiment (diluted 1:100 v/v) were then pipetted into appropriate tubes as specified in the kit instructions. […]
(§1) After this incubation, all tubes were placed in an ice-bath and 1 ml cold precipitating reagent supplied in the kit was added to the tubes, the content mixed and incubated for 25 min at 4° C. […] The supernatants of all tubes were decanted as specified in the kit instructions and the RIA samples analyzed on a gamma-counter. The levels of PGE2 generated by the test agent were then quantified in comparison with the PGE2-standard curve. Dose-response data for the test agent were constructed and the potency and intrinsic activity determined as described above for other assays.

h-CM cells = test: Prostaglandin production in h-CM cells; assay type: cell-based, human; conditions: 1-10 μM
Protocol: A functional assay to discover BK agonists may involve the measurement of prostaglandin E2 (PGE2) production (Wiernas et al. Brit. J. Pharmacol. 123: 1127-1137, 1998), for instance, in cells isolated from human or animal ocular or non-ocular tissues, or cells expressing recombinant (preferably human) BK receptors. Cells expressing BK receptors are seeded in 48-wells culture plates and allowed to reach confluence. After this time the cells are rinsed twice with 0.5 mL of phosphate buffered saline and incubated with the test agent made up in 0.5 mL Dulbeco's modified Eagle's medium (DMEM)/F-12 for 1 h at 37° C. […]
as §1, with “are” for “were”, “is” for “was”, “assays. […]” for “assays.”

[3] = aqueous humor, read-out: Aqueous Humor Concentration
[4] = ciliary body, read-out: Ciliary Body Concentration

For `CNC(=O)c1ccc(/C=C/C(=O)NCC(=O)N(C)c2ccc(Cl)c(COc3cccc4c(OCc5ccccn5)cc(C)nc34)c2Cl)cc1` [FR-190997], the concentration at 0.5 hr [1, 3] was 0.9 ± 0.2 nM, the concentration at 1 hr [1, 3] was 16 ± 4.7 nM and the concentration at 1.5 hr ([1]; aqueous humor, 1.5 hr post-dosing) was 3.1 ± 1.1 nM. It also gave a concentration at 3 hr [1, 3] of 139 ± 114 nM, a concentration at 6 hr [1, 3] of 16.6 ± 4.6 nM and a concentration at 0.5 hr [1, 4] of 2.75 ± 1.7 nM. The concentration at 1 hr [1, 4] was 5.52 ± 1.68 nM, the concentration at 3 hr [1, 4] was 26.4 ± 7.9 nM and the concentration at 6 hr [1, 4] was 37 ± 10.6 nM. The “peak aqueous humor level” value [1] was 139 nM, the “time of peak aqueous humor level post-dosing” value [1] was 3 h and the “ability to lower IOP” value (guinea pigs) was “unable to lower IOP”. For the same compound, the “effect on IOP in ocular normotensive mice” value (ocular normotensive mice) was “lower IOP”, the “production of endogenous prostaglandins (PGE2)” value [2] was “stimulated production of endogenous prostaglandins” and the production of prostaglandins (h-CM cells) was 1.75 fold above basal.

From patent publication US8173668B1 (Alcon Research, Ltd., priority 2007, dated 2012)
